Experimental data published in patent publication US12391679B2, “Benzamide-substituted bicyclic imidazo- and pyrazolo-fused -pyridine, -pyrimide, and -pyridazine compounds for treatment of inflammatory diseases” (ONCO3R Therapeutics BV, priority 2019, dated 2025).
Where two headings read alike, the source gives them in different places.

Experiments:
SIK3 = molecular target: T1, SIK3 (Homo sapiens, UniProt Q9Y2K2); experiment: ADP-Glo kinase assay, SIK3; type: biochemical
T1 construct: purchased SignalChem S12-11G-100
Summary of the method: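 Kinase reactions ran 120 min at room temperature after ATP addition to enzyme-substrate mix. Remaining ATP was depleted (40 min) and ADP converted to ATP for luciferase detection (30 min), signal rising with activity. Final 1% DMSO and 10 μM staurosporine served as negative and positive controls.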

[1] = test system: LPS-induced TNFα in monocytes; experiment: Monocytes assay: LPS-triggered TNFα (ELISA); type: cell-based, human; settings: LPS-triggered TNFα inhibition
Summary of the method: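 TNFα secretion was triggered with 200 ng/mL LPS for 4 h in human blood CD14+ monocytes after 1 h compound pretreatment at 37 °C, with 0.2% final DMSO. Supernatants were analysed by streptavidin-HRP/luminol ELISA, and percentage inhibition at each concentration was derived relative to control wells.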

[2] = ADP-Glo, AMARA 45 μM, 5 μM ATP, 120 min, average IC50

T1 sequence (Q9Y2K2 59-365 limits assumed): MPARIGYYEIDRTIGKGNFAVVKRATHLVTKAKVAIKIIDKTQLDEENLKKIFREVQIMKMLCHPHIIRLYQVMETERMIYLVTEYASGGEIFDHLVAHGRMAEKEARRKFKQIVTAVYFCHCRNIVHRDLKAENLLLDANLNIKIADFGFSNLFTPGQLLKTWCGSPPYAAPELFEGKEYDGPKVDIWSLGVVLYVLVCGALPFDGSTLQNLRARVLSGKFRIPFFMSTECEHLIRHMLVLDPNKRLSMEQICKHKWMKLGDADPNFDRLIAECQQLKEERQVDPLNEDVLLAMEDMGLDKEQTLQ

Row | IC50 (SIK3) [nM] | EC50 ([1]; Homo sapiens, Monocyte) [nM] | IC50 (SIK3; [2]) [nM] | EC50 [1] [nM] | Structure (SMILES)
1 |  |  | 10 to 100 | 100 to 1000 | CC[C@](C)(O)c1ccn2c(-c3cc(OC)c(C(=O)NC4CC4)c(OC(F)F)c3)cnc2c1 (single isomer, unassigned) [Cpd 165, N-cyclopropyl-2-(difluoromethoxy)-4-[7-(1-hydroxy-1-methyl-propyl)imidazo[1,2-a]pyridin-3-yl]-6-methoxy-benzamide]
2 | 0.01 to 10 | 0.1 to 100 |  |  | COc1cc(-c2cnc3cc(C4(C#N)CC4)ccn23)cc(OC(F)F)c1C(=O)NC1CC1 [Cpd 33, 4-[7-(1-cyanocyclopropyl)imidazo[1,2-a]pyridin-3-yl]-N-cyclopropyl-2-(difluoromethoxy)-6-methoxy-benzamide]
3 | 0.01 to 10 | 100 to 1000 |  |  | COc1cc(-c2cnc3cc(C4CN(C(C)=O)C4)ccn23)cc(OC(F)F)c1C(=O)NC1CC1 [Cpd 63, 4-[7-(1-acetylazetidin-3-yl)imidazo[1,2-a]pyridin-3-yl]-N-cyclopropyl-2-(difluoromethoxy)-6-methoxy-benzamide]
4 | 0.01 to 10 | 100 to 1000 |  |  | COc1cc(-c2cnc3cc(C(C)(C)C#N)ccn23)cc(OC(F)F)c1C(=O)NCC(F)F [Cpd 70, 4-[7-(1-cyano-1-methyl-ethyl)imidazo[1,2-a]pyridin-3-yl]-N-(2,2-difluoroethyl)-2-(difluoromethoxy)-6-methoxy-benzamide]
5 | 10 to 100 | 100 to 1000 |  |  | COc1cc(-c2cnc3cc(C(C)(C)CN)ccn23)cc(OC(F)F)c1C(=O)NC1CC1 [Cpd 93, 4-[7-(2-amino-1,1-dimethyl-ethyl)imidazo[1,2-a]pyridin-3-yl]-N-cyclopropyl-2-(difluoromethoxy)-6-methoxy-benzamide]
6 | 0.01 to 10 | 100 to 1000 |  |  | COc1cc(-c2cnc3cc(C(C)(C)N)ccn23)cc(OC(F)F)c1C(=O)NC1CC1 [Cpd 106, 4-[7-(1-amino-1-methyl-ethyl)imidazo[1,2-a]pyridin-3-yl]-N-cyclopropyl-2-(difluoromethoxy)-6-methoxy-benzamide]
7 | 10 to 100 | 100 to 1000 |  |  | CCOC(C)(C)c1ccn2c(-c3cc(OC)c(C(=O)NC4CC4)c(OC(F)F)c3)cnc2c1 [Cpd 128, N-cyclopropyl-2-(difluoromethoxy)-4-[7-(1-ethoxy-1-methyl-ethyl)imidazo[1,2-a]pyridin-3-yl]-6-methoxy-benzamide]
8 | 0.01 to 10 | 0.1 to 100 |  |  | COc1cc(-c2cnn3cc(C4(C#N)CC4)ccc23)cc(OC(F)F)c1C(=O)N[C@@H]1C[C@@H]1F [Cpd 235, 4-[6-(1-cyanocyclopropyl)pyrazolo[1,5-a]pyridin-3-yl]-2-(difluoromethoxy)-N-[(1R,2S)-2-fluorocyclopropyl]-6-methoxy-benzamide]

Further lines, the compound ahead of its results:

Row | Structure (SMILES) | IC50 (SIK3) [nM] | EC50 ([1]; Homo sapiens, Monocyte) [nM] | IC50 (SIK3; [2]) [nM] | EC50 [1] [nM]
9 | COc1cc(-c2cnc3cc([C@@](C)(O)C4CC4)ccn23)cc(OC(F)F)c1C(=O)NC1CC1 (single isomer, unassigned) [Cpd 162, N-cyclopropyl-4-[7-(1-cyclopropyl-1-hydroxy-ethyl)imidazo[1,2-a]pyridin-3-yl]-2-(difluoromethoxy)-6-methoxy-benzamide] | 10 to 100 | 100 to 1000 |  | 
10 | COc1cc(-c2cnc3cc([C@@](C)(O)C4CC4)ccn23)cc(OC(F)F)c1C(=O)NC1CC1 (single isomer, unassigned) [Cpd 163, N-cyclopropyl-4-[7-(1-cyclopropyl-1-hydroxy-ethyl)imidazo[1,2-a]pyridin-3-yl]-2-(difluoromethoxy)-6-methoxy-benzamide] |  |  | 10 to 100 | 100 to 1000
11 | CC[C@](C)(O)c1ccn2c(-c3cc(OC)c(C(=O)NC4CC4)c(OC(F)F)c3)cnc2c1 (single isomer, unassigned) [Cpd 164, N-cyclopropyl-2-(difluoromethoxy)-4-[7-(1-hydroxy-1-methyl-propyl)imidazo[1,2-a]pyridin-3-yl]-6-methoxy-benzamide] | 10 to 100 | 100 to 1000 |  | 
12 | COc1cc(-c2cnc3cc(C(C)(C)C#N)ccn23)cc(OC)c1C(=O)NC1CC1 [Cpd 28, 4-[7-(1-cyano-1-methyl-ethyl)imidazo[1,2-a]pyridin-3-yl]-N-cyclopropyl-2,6-dimethoxy-benzamide] | 10 to 100 | 100 to 1000 |  | 
13 | COc1cc(-c2cnc3cc(C4CCCN(C(=O)OC(C)(C)C)C4)ccn23)cc(OC(F)F)c1C(=O)NC1CC1 (stereo not drawn) [Cpd 64, tert-butyl 3-[3-[4-(cyclopropylcarbamoyl)-3-(difluoromethoxy)-5-methoxy-phenyl]imidazo[1,2-a]pyridin-7-yl]piperidine-1-carboxylate] | 0.01 to 10 | 100 to 1000 |  | 
14 | COc1cc(-c2cnc3cc(C(C)(C)C#N)ccn23)cc(OC(F)F)c1C(=O)N1CC(F)(F)C1 [Cpd 69, 2-[3-[4-(3,3-difluoroazetidine-1-carbonyl)-3-(difluoromethoxy)-5-methoxy-phenyl]imidazo[1,2-a]pyridin-7-yl]-2-methyl-propanenitrile] | 0.01 to 10 | 100 to 1000 |  | 
15 | COc1cc(-c2cnn3cc(C4CCOCC4)cnc23)cc(OC(F)F)c1C(=O)NC1CC1 [Cpd 95, N-cyclopropyl-2-(difluoromethoxy)-6-methoxy-4-(6-tetrahydropyran-4-ylpyrazolo[1,5-a]pyrimidin-3-yl)benzamide] | 0.01 to 10 | 100 to 1000 |  | 
16 | COc1cc(-c2cnc3cc(C(C)(C)C#N)ccn23)cc(OC(F)F)c1C(=O)N1CC(F)C1 [Cpd 96, 2-[3-[3-(difluoromethoxy)-4-(3-fluoroazetidine-1-carbonyl)-5-methoxy-phenyl]imidazo[1,2-a]pyridin-7-yl]-2-methyl-propanenitrile] | 0.01 to 10 | 100 to 1000 |  | 
17 | COC(=O)C1(c2ccn3c(-c4cc(OC)c(C(=O)NC5CC5)c(OC(F)F)c4)cnc3c2)CC1 [Cpd 113, methyl 1-[3-[4-(cyclopropylcarbamoyl)-3-(difluoromethoxy)-5-methoxy-phenyl]imidazo[1,2-a]pyridin-7-yl]cyclopropanecarboxylate] | 0.01 to 10 | 100 to 1000 |  | 
18 | COc1cc(-c2cnc3cc(C(C)(O)C4CC4)ccn23)cc(OC(F)F)c1C(=O)NC1CC1 (stereo not drawn) [Cpd 138, N-cyclopropyl-4-[7-(1-cyclopropyl-1-hydroxy-ethyl)imidazo[1,2-a]pyridin-3-yl]-2-(difluoromethoxy)-6-methoxy-benzamide] | 10 to 100 | 100 to 1000 |  | 
19 | COc1cc(-c2cnc3cc(C(C)O)ccn23)cc(OC(F)F)c1C(=O)NC1CC1 (stereo not drawn) [Cpd 140, N-cyclopropyl-2-(difluoromethoxy)-4-[7-(1-hydroxyethyl)imidazo[1,2-a]pyridin-3-yl]-6-methoxy-benzamide] | 10 to 100 | 100 to 1000 |  | 
20 | COc1cc(-c2cnc3cc(C(C)N4CCCCC4)ccn23)cc(OC(F)F)c1C(=O)NC1CC1 (stereo not drawn) [Cpd 146, N-cyclopropyl-2-(difluoromethoxy)-6-methoxy-4-[7-[1-(1-piperidyl)ethyl]imidazo[1,2-a]pyridin-3-yl]benzamide] | 10 to 100 | 1000 to 5000 |  | 
21 | COc1cc(-c2cnc3cc(C(C)(C)CN4CCOCC4)ccn23)cc(OC(F)F)c1C(=O)NC1CC1 [Cpd 160, N-cyclopropyl-2-(difluoromethoxy)-4-[7-(1,1-dimethyl-2-morpholino-ethyl)imidazo[1,2-a]pyridin-3-yl]-6-methoxy-benzamide] | 10 to 100 | 100 to 1000 |  | 
22 | COc1cc(-c2cnc3cc(C4CCOCC4)c(F)cn23)cc(OC(F)F)c1C(=O)NC1CC1 [Cpd 166, N-cyclopropyl-2-(difluoromethoxy)-4-(6-fluoro-7-tetrahydropyran-4-yl-imidazo[1,2-a]pyridin-3-yl)-6-methoxy-benzamide] | 0.01 to 10 | 100 to 1000 |  | 
23 | COc1cc(-c2cnc3cc(C4COCCN4C)ccn23)cc(OC(F)F)c1C(=O)NC1CC1 (stereo not drawn) [Cpd 193, N-cyclopropyl-2-(difluoromethoxy)-6-methoxy-4-[7-(4-methylmorpholin-3-yl)imidazo[1,2-a]pyridin-3-yl]benzamide] | 10 to 100 | 100 to 1000 |  | 
24 | COc1cc(-c2cnn3cc(C(C)(C)COS(C)(=O)=O)ccc23)cc(OC(F)F)c1C(=O)N[C@@H]1C[C@@H]1F [Cpd 267, [2-[3-[3-(difluoromethoxy)-4-[[(1R,2S)-2-fluorocyclopropyl]carbamoyl]-5-methoxy-phenyl]pyrazolo[1,5-a]pyridin-6-yl]-2-methyl-propyl]methanesulfonate] | 0.01 to 10 | 0.1 to 100 |  | 
